Measured values reported in ChEMBL document CHEMBL5344406, “1,2,3-Triazole-containing hybrids with potential antibacterial activity against ESKAPE pathogens” (2022).
In brackets after ≈: the same amount, converted by molar mass.

How the values were obtained:
Assay type in all cases: functional
[1] = tested on: Escherichia coli; experiment: Antibacterial activity against multidrug-resistant Escherichia coli assessed as bacterial growth inhibition incubated for 24 hrs by […] method
[2] = tested on: Staphylococcus aureus; experiment: Potency index, ratio of Norfloxacin MIC to test compound MIC for antibacterial activity against Staphylococcus aureus assessed as bacterial growth inhibition by broth dilution method
[3] = tested on: Staphylococcus aureus; experiment: Antibacterial activity against multidrug-resistant Staphylococcus aureus clinical isolate assessed as bacterial growth inhibition by broth dilution method
[4] = tested on: Staphylococcus aureus; experiment: Antibacterial activity against Staphylococcus aureus assessed as bacterial growth inhibition by broth dilution method
[5] = tested on: Escherichia coli; experiment: Antibacterial activity against Escherichia coli assessed as bacterial growth inhibition by broth microdilution method
[6] = tested on: Staphylococcus aureus; experiment: Antibacterial activity against Staphylococcus aureus assessed as bacterial growth inhibition by broth microdilution method
[7] = tested on: Klebsiella pneumoniae; experiment: Antibacterial activity against Klebsiella pneumoniae assessed as bacterial growth inhibition by broth microdilution method
[8] = tested on: Klebsiella pneumoniae; experiment: Antibacterial activity against Klebsiella pneumoniae producing extended spectrum beta-lactamases assessed as bacterial growth inhibition
[9] = tested on: Escherichia coli; experiment: Antibacterial activity against Escherichia coli producing extended spectrum beta-lactamases assessed as bacterial growth inhibition
[10] = tested on: Enterococcus faecalis; experiment: Antibacterial activity against Enterococcus faecalis assessed as bacterial growth inhibition
[11] = tested on: Klebsiella aerogenes; experiment: Antibacterial activity against Enterobacter aerogenes assessed as bacterial growth inhibition
[12] = tested on: Staphylococcus epidermidis; experiment: Antibacterial activity against methicillin-sensitive Staphylococcus epidermidis assessed as bacterial growth inhibition
[13] = tested on: Escherichia coli; experiment: Antibacterial activity against Escherichia coli assessed as bacterial growth inhibition
[14] = tested on: Staphylococcus aureus; experiment: Antibacterial activity against methicillin-sensitive Staphylococcus aureus assessed as bacterial growth inhibition
[15] = tested on: Enterococcus faecium; experiment: Antibacterial activity against Enterococcus faecium assessed as bacterial growth inhibition
[16] = tested on: Providencia rettgeri; experiment: Antibacterial activity against Providencia rettgeri assessed as bacterial growth inhibition
[17] = tested on: Enterobacter cloacae; experiment: Antibacterial activity against Enterobacter cloacae assessed as bacterial growth inhibition
[18] = tested on: Klebsiella pneumoniae; experiment: Antibacterial activity against Klebsiella pneumoniae assessed as bacterial growth inhibition
[19] = tested on: Proteus vulgaris; experiment: Antibacterial activity against Proteus vulgaris assessed as bacterial growth inhibition
[20] = tested on: Pseudomonas aeruginosa; experiment: Antibacterial activity against Pseudomonas aeruginosa assessed as bacterial growth inhibition
[21] = tested on: Escherichia coli; experiment: Antibacterial activity against Escherichia coli assessed as bacterial growth inhibition incubated for 24 hrs by spectrophotometry
[22] = tested on: Staphylococcus aureus; experiment: Antibacterial activity against Staphylococcus aureus assessed as bacterial growth inhibition incubated for 24 hrs by spectrophotometry
[23] = tested on: Pseudomonas aeruginosa; experiment: Antibacterial activity against Pseudomonas aeruginosa assessed as bacterial growth inhibition incubated for 24 hrs by spectrophotometry
[24] = tested on: Bacillus subtilis; experiment: Antibacterial activity against Bacillus subtilis assessed as bacterial growth inhibition incubated for 24 hrs by spectrophotometry
[25] = tested on: Staphylococcus aureus; experiment: Antibacterial activity against methicillin-resistant Staphylococcus aureus assessed as bacterial growth inhibition by agar dilution method

Question: For `Clc1cccc(Cn2cc(COc3ccc(-c4nc5ccccc5s4)cc3)nn2)c1`, which MIC [1] is on record?
Answer: 8.02 µg/mL (≈ 18.5 µM)

Question: For `CC(=O)OC[C@@H]1O[C@H](n2cc(Cn3c(=O)cc(C)n(CCCCCCCC[P+](c4ccccc4)(c4ccccc4)c4ccccc4)c3=O)nn2)[C@@H](OC(C)=O)[C@H]1OC(C)=O.[Br-]`, which Ratio [2] is on record?
Answer: 7.5

Question: And the MIC [3]?
Answer: 1 µg/mL

Question: What about the MIC [4] of the same molecule?
Answer: 1 µg/mL

Question: What does the source list for `CC1(C)S[C@@H]2[C@H](NC(=O)[C@H](N)c3ccc(O)cc3)C(=O)N2[C@H]1C(=O)O` [AMOXICILLIN]?
Answer: MIC [5]: 25 µg/mL (≈ 68.4 µM); MIC [6]: 25 µg/mL (≈ 68.4 µM); MIC [7]: 25 µg/mL (≈ 68.4 µM)

Question: For `CCO/N=C1\C(=O)N(Cc2cn(CC(=O)N3CCC[C@@H]4CN(c5c(F)cc6c(=O)c(C(=O)O)cn(C7CC7)c6c5OC)C[C@@H]43)nn2)c2ccccc21`, which MIC [8] is on record?
Answer: ≤ 0.03 µg/mL

Question: And the MIC [9]?
Answer: ≤ 0.03 µg/mL

Question: What about the MIC [10] of the same molecule?
Answer: ≤ 0.03 µg/mL

Question: What about the MIC [11] of the same molecule?
Answer: ≤ 0.03 µg/mL

Question: What about the MIC [12] of the same molecule?
Answer: ≤ 0.03 µg/mL

Question: And the MIC [13]?
Answer: ≤ 0.03 µg/mL

Question: What about the MIC [14] of the same molecule?
Answer: ≤ 0.03 µg/mL

Question: And the MIC [15]?
Answer: ≤ 0.03 µg/mL

Question: What about the MIC [16] of the same molecule?
Answer: ≤ 0.03 µg/mL

Question: And the MIC [17]?
Answer: ≤ 0.03 µg/mL

Question: What about the MIC [18] of the same molecule?
Answer: ≤ 0.03 µg/mL

Question: And the MIC [19]?
Answer: ≤ 0.03 µg/mL

Question: And the MIC [20]?
Answer: ≤ 0.03 µg/mL

Question: With `COC(=O)[C@H](Cc1cn(Cc2cn(-c3ccccc3[N+](=O)[O-])nn2)c2ccccc12)NC(=O)[C@@H](C)c1ccc2cc(OC)ccc2c1` as the molecule, how does the MIC [5] read?
Answer: 25 µg/mL (≈ 39.5 µM)

Question: What about the MIC [6] of the same molecule?
Answer: 25 µg/mL (≈ 39.5 µM)

Question: And the MIC [7]?
Answer: 25 µg/mL (≈ 39.5 µM)

Question: `Cc1c(C(=O)/C=C/c2ccc(Cl)cc2)nnn1-c1ccc(Cl)c(Cl)c1` was tested. Which MIC [21] did it give?
Answer: 1.3 µg/mL (≈ 3.31 µM)

Question: What about the MIC [22] of the same molecule?
Answer: 1.3 µg/mL (≈ 3.31 µM)

Question: And the MIC [23]?
Answer: 1.3 µg/mL (≈ 3.31 µM)

Question: What about the MIC [24] of the same molecule?
Answer: 1.3 µg/mL (≈ 3.31 µM)

Question: `COc1cc(/C=C/c2ccc(O)cc2)cc(OC)c1` [PTEROSTILBENE] was tested. Which MIC [25] did it give?
Answer: 41 µg/mL (≈ 160 µM)

Question: What does the source list for `C[C@H]1COc2c(N3CCN(C)CC3)c(F)cc3c(=O)c(C(=O)O)cn1c23` [LEVOFLOXACIN ANHYDROUS]?
Answer: MIC [21]: 33.6 µg/mL (≈ 93 µM); MIC [22]: 33.6 µg/mL (≈ 93 µM); MIC [23]: 33.6 µg/mL (≈ 93 µM); MIC [24]: 33.6 µg/mL (≈ 93 µM)

Question: `c1ccc(-n2cc(COc3ccc(-c4nc5ccccc5s4)cc3)nn2)cc1` was tested. Which MIC [1] did it give?
Answer: 7.99 µg/mL (≈ 20.8 µM)

Question: For `CO/N=C1\C(=O)N(Cc2cn(CC(=O)N3CCC[C@@H]4CN(c5c(F)cc6c(=O)c(C(=O)O)cn(C7CC7)c6c5OC)C[C@@H]43)nn2)c2ccc(C)cc21`, which MIC [8] is on record?
Answer: ≤ 0.03 µg/mL

Question: What about the MIC [9] of the same molecule?
Answer: ≤ 0.03 µg/mL

Question: And the MIC [10]?
Answer: ≤ 0.03 µg/mL

Question: And the MIC [11]?
Answer: ≤ 0.03 µg/mL

Question: And the MIC [12]?
Answer: ≤ 0.03 µg/mL

Question: What about the MIC [13] of the same molecule?
Answer: ≤ 0.03 µg/mL

Question: And the MIC [14]?
Answer: ≤ 0.03 µg/mL

Question: What about the MIC [15] of the same molecule?
Answer: ≤ 0.03 µg/mL

Question: And the MIC [16]?
Answer: ≤ 0.03 µg/mL

Question: And the MIC [17]?
Answer: ≤ 0.03 µg/mL

Question: What about the MIC [18] of the same molecule?
Answer: ≤ 0.03 µg/mL

Question: What about the MIC [19] of the same molecule?
Answer: ≤ 0.03 µg/mL

Question: And the MIC [20]?
Answer: ≤ 0.03 µg/mL
